Data taken from patent US9345774B2, “Topical composition comprising a film-forming polymer for delivering an active ingredient to skin” (LEO PHARMA A/S, priority 2012, dated 2016).

Test: Chemical stability of calcipotriol in contact with container inner coating
Assay type: physicochemical

chemical stability of calcipotriol (epoxyphenol resin inner lacquer): unacceptable chemical degradation
chemical stability of calcipotriol (polyimide-polyamide resin as inner coating): satisfactory
Structure (SMILES): C=C1/C(=C\C=C2/CCC[C@]3(C)[C@@H]([C@H](C)/C=C/[C@@H](O)C4CC4)CC[C@@H]23)C[C@@H](O)C[C@@H]1O [calcipotriol]
